From patent US12252493B2, “Imidazo[1,2-c]pyrimidine derivatives as PRC2 inhibitors for treating cancer” (Mirati Therapeutics, Inc., priority 2019, dated 2025)
Where two headings read alike, the source gives them in different places.

Key:
[1] = molecular target: purified human, His-tagged PRC2 complex (Homo sapiens (Human), UniProt O75530); assay: Hot Spot HMT assay of PRC2 enzymatic activity (tritiated methyl transfer from SAM to core histone); assay type: biochemical; settings: 10 nM purified PRC2 complex, 0.05 mg/ml core histone H3, 1 uM 3H-SAM, 1 hr at 30° C.
purified human, His-tagged PRC2 complex, sequence (Q15910 whole entry): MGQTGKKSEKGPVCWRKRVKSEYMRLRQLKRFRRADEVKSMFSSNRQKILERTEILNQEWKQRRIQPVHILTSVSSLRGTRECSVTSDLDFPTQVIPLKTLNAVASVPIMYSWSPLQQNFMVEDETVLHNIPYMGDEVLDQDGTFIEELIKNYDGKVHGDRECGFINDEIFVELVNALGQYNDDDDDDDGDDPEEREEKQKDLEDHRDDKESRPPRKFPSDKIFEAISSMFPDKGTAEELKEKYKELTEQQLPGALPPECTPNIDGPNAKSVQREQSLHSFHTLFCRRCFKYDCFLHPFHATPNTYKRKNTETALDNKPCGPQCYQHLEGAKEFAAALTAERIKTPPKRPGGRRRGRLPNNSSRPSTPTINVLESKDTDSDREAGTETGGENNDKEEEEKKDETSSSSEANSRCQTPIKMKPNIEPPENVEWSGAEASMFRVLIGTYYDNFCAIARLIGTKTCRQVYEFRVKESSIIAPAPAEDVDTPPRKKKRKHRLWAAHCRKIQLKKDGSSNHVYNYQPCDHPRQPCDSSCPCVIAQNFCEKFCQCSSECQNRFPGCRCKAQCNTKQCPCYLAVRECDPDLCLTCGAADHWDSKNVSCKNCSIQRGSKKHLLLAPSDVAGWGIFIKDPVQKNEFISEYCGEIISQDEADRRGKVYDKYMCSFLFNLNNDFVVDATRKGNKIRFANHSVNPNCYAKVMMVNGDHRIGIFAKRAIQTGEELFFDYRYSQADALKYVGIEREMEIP
purified human, His-tagged PRC2 complex, sequence (O75530 whole entry): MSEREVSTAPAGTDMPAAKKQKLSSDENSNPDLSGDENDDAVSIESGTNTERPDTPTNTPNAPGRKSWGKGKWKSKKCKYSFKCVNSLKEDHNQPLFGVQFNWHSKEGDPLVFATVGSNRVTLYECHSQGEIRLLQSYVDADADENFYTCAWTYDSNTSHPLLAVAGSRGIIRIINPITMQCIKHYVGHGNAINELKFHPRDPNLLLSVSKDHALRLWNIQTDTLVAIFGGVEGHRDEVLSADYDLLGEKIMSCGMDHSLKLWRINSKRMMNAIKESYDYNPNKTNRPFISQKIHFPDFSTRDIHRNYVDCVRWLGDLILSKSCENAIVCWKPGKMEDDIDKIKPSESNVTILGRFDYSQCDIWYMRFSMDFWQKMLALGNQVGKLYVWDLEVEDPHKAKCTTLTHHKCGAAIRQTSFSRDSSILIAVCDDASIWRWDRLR
purified human, His-tagged PRC2 complex, sequence (Q15022 whole entry partner): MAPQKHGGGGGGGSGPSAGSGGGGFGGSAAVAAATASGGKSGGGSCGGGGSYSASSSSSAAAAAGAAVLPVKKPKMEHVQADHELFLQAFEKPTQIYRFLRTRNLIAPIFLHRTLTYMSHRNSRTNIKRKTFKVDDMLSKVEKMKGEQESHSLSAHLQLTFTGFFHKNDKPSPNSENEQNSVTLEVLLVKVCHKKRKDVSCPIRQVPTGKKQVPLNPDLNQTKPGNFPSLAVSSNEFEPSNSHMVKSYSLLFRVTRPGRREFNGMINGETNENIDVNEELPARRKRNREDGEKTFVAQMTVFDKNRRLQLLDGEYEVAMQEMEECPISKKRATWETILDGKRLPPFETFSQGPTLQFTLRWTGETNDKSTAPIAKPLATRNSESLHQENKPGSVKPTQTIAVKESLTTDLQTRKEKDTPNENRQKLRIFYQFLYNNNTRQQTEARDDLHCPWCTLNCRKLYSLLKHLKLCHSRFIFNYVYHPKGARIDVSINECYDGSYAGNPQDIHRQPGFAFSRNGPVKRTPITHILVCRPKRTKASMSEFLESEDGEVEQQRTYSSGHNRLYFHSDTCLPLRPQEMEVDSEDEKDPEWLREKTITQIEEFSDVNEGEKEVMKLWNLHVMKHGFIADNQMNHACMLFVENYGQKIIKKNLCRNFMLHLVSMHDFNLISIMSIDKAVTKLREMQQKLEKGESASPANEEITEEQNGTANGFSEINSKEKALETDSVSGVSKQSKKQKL
purified human, His-tagged PRC2 complex, sequence (Q6ZN18 whole entry partner): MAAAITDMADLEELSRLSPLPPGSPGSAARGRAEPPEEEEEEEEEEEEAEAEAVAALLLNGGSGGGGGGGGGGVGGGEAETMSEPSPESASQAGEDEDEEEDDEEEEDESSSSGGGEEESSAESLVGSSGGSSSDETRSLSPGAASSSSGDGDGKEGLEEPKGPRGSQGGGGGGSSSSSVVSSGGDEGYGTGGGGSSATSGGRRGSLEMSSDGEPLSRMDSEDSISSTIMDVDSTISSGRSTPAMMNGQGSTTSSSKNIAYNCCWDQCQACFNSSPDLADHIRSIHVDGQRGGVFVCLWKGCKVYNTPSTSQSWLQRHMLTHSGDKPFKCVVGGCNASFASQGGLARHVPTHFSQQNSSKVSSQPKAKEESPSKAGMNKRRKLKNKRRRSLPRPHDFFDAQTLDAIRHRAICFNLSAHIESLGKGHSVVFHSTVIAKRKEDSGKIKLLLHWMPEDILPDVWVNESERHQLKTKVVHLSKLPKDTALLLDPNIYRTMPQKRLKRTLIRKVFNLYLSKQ
purified human, His-tagged PRC2 complex, sequence (Q09028 whole entry partner): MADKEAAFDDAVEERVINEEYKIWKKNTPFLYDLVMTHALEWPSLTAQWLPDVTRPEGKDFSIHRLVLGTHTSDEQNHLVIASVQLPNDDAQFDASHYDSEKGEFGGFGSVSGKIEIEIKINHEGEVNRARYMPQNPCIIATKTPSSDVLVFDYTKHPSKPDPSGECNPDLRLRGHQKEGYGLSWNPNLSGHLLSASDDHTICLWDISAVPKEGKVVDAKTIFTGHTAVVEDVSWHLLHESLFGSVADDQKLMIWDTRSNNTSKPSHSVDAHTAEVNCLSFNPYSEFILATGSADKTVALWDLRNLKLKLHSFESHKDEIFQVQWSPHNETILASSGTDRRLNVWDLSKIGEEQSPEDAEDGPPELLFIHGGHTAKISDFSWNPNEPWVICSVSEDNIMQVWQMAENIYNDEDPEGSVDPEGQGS
Description: Ten-point dose-response curves for compounds of the present invention were determined using a Hot Spot HMT assay (Reaction Biology Corp; see Horiuchi et al., Assay Drug Dev Technol. (2013) 4: 227-236 doi: 10.1089/adt.2012.480). The assay uses purified human, His-tagged PRC2 complex, including N-terminal His-tagged EZH2 enzyme, N-terminal Flag-tagged embryonic ectoderm development protein (EED), N-terminal His-tagged suppressor of zeste 12 (SUZ12), N-terminal His-tagged AEBP2, and N-terminal His-tagged RbAp48. In this assay, the transfer of the tritiated methyl group from radiolabeled S-adenosyl methionine (SAM) to purified core histone protein by EZH2 is quantitated after filtration to determine the activity of the core PRC2 complex in the presence and absence of compound.
Briefly, compounds of the present invention were solubilized in DMSO and a series of 10, three-fold serial dilutions were made for each compound in 15% DMSO. The initial starting concentration for the serial dilutions of each compound was 1.0 μM. Control samples lacking compound, EZH2 enzyme or various reaction components also were prepared and processed in parallel with compound test samples. SAH (S-(5-adenosyl)-L-homocysteine) was used as a positive control for assay validation.
An aliquot of each serial dilution of test compound was added to deep 384 well plate using Acoustic Technology instrument (Echo 550, LabCyte) containing reaction buffer (50 mM Tris-HCl (pH 8.)), 0.01% Brij35, 1 mM EDTA, 1 mM DTT, 1 mM PMSF and 1% DMSO), 10 nM purified PRC2 complex and 0.05 mg/ml core histone H3 in a 5 μl volume. The reaction was mixed gently and then pre-incubated for 20 min at 30° C. The enzymatic reaction was initiated by adding 1 uM S-Adenosyl-L-[methyl ^3H]methionine and incubated for 1 hr at 30° C. After 1 hr, the reaction product was detected using a filter binding method and the amount of tritiated H3 core histone was quantitated using a scintillation counter. The IC50 value for each compound was determined from each 10-point dose-response curve using GraphPad Prism software and the results for exemplary compounds of Formula (I) are shown in Table 5. Key: A=≤250 nM; B=>250 nM—≤500 nM; and C=>500 nM—≤2 μM.

[2] = system: PRC2-mediated histone H3 methylation (H3 Lys27 trimethylation) in Pfeiffer cells expressing mutant EZH2 (A677G); assay: Tri-Methyl Histone H3 (Lys 27) sandwich ELISA in Pfeiffer cells; assay type: cell-based, human; settings: read-out: IC50, Inhibition of EZH2-mediated Histone H3 Trimethylation
From the text: The Pfeiffer cell line was established from a […] from a patient having metastatic diffuse large B-cell lymphoma (DLBCL). This cell line expresses a mutant form of the EZH2 enzyme (A677G) that results in enhanced EZH2 activity leading to increased methylation of histone H3 Lys27. Increased trimethylation of histone H3 Lys27 is believed to be implicated in tumorgenesis and poor clinical prognosis in lymphomas (McCabe et al., (2012) Nature 492:108-112).
Inhibition of PRC2-mediated histone H3 methylation by compounds of Formula (I) was measured by ELISA using a Tri-Methyl Histone H3 (Lys 27) Sandwich ELISA Kit (Cell Signaling Tech #7866C) in accordance with the manufacturer's instructions. Briefly, Pfeiffer cells were cultured in RPMI medium supplemented with 10% fetal bovine serum and 1% penicillin and 1% streptomycin in 96 well culture plates at 37° C. to a density of 8000 cells/90 μl/well and the cells were harvested. A series of 3-fold serial dilutions of each test compound of Formula (I) were prepared in RPMI medium and added to the cells at final concentrations ranging from 1 μM to 0.15 nM. The plates were incubated at 37° C. for 96 hours.
After incubation, the cells were pelleted by centrifugation in a pre-cooled 4° C. rotor at 1,100 rpm for 10 min and the supernatant was removed by aspiration. The cell pellet was resuspended in 55 μl of Lysis Buffer (0.4M HCl) and incubated on ice with periodic shaking for 30 minutes. The lysed cells were subjected to centrifugation at 4,200 rpm for 10 min at 4° C. and the supernatant containing acid-soluble proteins was collected and the remainder discarded. The acid-soluble proteins were brought to a neutral pH by the addition of 20 μl of Neutralization Buffer (1 M Sodium phosphate, dibasic (pH 12.5), 2.5 mM DTT and 1 mM PMSF) and the neutralized lysates were analyzed by ELISA.
A 65 μl aliquot of each cell lysate was added to a well of a microwell strip, the microwells were sealed using tape and incubated either at 37° C. for two hours or at 4° C. overnight. After incubation, the tape was removed at the microwells were washed four times using 200 μl of 1× Wash Buffer. To each washed microwell, a 100 μl aliquot of an anti-trimethyl histone H3 Lys27 Detection Antibody solution was added and the microwells were incubated at 37° C. for one hour. The Detection Antibody solution was removed by aspiration and the wells were washed four times each using 200 μl of 1× Wash Buffer.
A 100 μl aliquot of an HRP-linked secondary antibody was added to each well, the wells were sealed with tape and incubated at 37° C. for 30 min. The HRP-linked secondary antibody solution was removed by aspiration and the wells were washed four times using 200 μl of 1× Wash Buffer. A 100 μl aliquot of a TMB substrate was added to each well, the wells were sealed with tape and incubated at 37° C. for 10 min or 25° C. for 30 min. The reaction was stopped by the addition of 100 μl aliquot of a STOP solution and the plate was shaken briefly. The degree of histone H3 trimethylation was determined using a spectrophotometric readout by measuring the absorbance at 450 nm and then calculating the amount of trimethylated histone H3. Key: A=≤250 nM; B=>250 nM-≤500 nM; and C=>500 nM-≤5 μM.

[3] = system: Karpas 422 cells expressing mutant EZH2 (Y641N); assay: Karpas 422 cell viability (Cell Titre Glo) assay; assay type: cell-based, human; settings: CTG viability, time point (Day 4, Day 7 or Day 11) not given, read-out: IC50, Inhibiting Proliferation of Cells Expressing an Activating Mutant Form of EZH2
Description: Karpas 422 cell line is a human B cell non-Hodgkin's lymphoma cell line established from a patient having DLBCL. This EZH2 heterozygotic cell line expresses a mutant form of EZH2 enzyme (Y641N) that increases histone H3 methylation and this mutation has been implicated in the tumorgenesis of lymphomas, such as DLBCL.
Karpas 422 cells (PHE cat no., 06101702) were cultured in RPMI medium supplemented with 20% fetal bovine serum and 1% penicillin/1% streptomycin and plated at a density of 1000 cells/90 μl/well in 96 well white assay plates. A dose response curve for compounds of the present invention was determined by adding a 10 μl aliquot of stock solutions of varying concentrations of compounds to the same medium in each well, over a concentration range of 10 μM using 3-fold dilutions to a final concentration of 1.5 nM. The plates were incubated at 37° C. for predetermined time periods, Day 4, Day 7, or Day 11, and the viability of the cells was measured using a CTG assay kit (Cell Titre Glo; Promega cat. no G7573) on Day 4 and Day 7 in accordance with the manufacturer's instructions.
For the viability assay for the Day 11 plates, the plates were subjected to centrifugation at 1100 rpm for five minutes on Day 7 and the supernatant was removed by aspiration. The cells were resuspended in 90 μl aliquot of the appropriate growth medium lacking the compound followed by addition of 10 μl of a 10× stock of the same compound at the same concentration. The viability of the Day 11 cells was measured using the CTG assay kit described above in accordance with the manufacturer's instructions. The IC50 values for each compound at each predetermined time point were calculated using Graph pad PRISM software and the results are shown in Table 7. Key: A=≤250 nM; B=>250 nM-≤500 nM; C=>500 nM-≤5 μM and N.D.=not determined.

[4] = read-out: IC50, Inhibition of PRC2-mediated Enzymatic Activity
[5] = Homo sapiens, Pfeiffer cells, 96 hours incubation, ELISA

| IC50 [1, 4] | IC50 [2, 5] | IC50 ([3]; Homo sapiens) | Structure (SMILES) | IC50 ([2]; Pfeiffer cells, 96 hours incubation, ELISA) | IC50 [3] | IC50 ([1]; IC50, Inhibition of PRC2-mediated Enzymatic Activity) | IC50 ([2]; Homo sapiens, Pfeiffer, 96 h) |
| --- | --- | --- | --- | --- | --- | --- | --- |
| 0.5 to 2 µM | 0.5 to 5 µM | 0.5 to 5 µM | NCc1cn2c(NCc3c(F)ccc4c3CCO4)ncc(-c3ccccc3Cl)c2n1 [Example 22, 2-(aminomethyl)-8-(2-chlorophenyl)-N-((5-fluoro-2,3-dihydrobenzofuran-4-yl)methyl)imidazo[1,2-c]pyrimidin-5-amine] |  |  |  |  |
| < 0.25 µM | < 0.25 µM | < 0.25 µM | Cc1ncccc1-c1cnc(NCc2c(F)ccc3c2CCO3)n2cc(C(C)N)nc12 (stereo not drawn) [Example 39, 2-(1-aminoethyl)-N-((5-fluoro-2,3-dihydrobenzofuran-4-yl)methyl)-8-(2-methylpyridin-3-yl)imidazo[1,2-c]pyrimidin-5-amine] |  |  |  |  |
| 0.25 to 0.5 µM | < 0.25 µM | < 0.25 µM | Cn1nc(C(F)(F)F)cc1-c1cnc(NCc2c(F)ccc3c2CCO3)n2cc(CN)nc12 [Example 15, 2-(aminomethyl)-N-((5-fluoro-2,3-dihydrobenzofuran-4-yl)methyl)-8-(1-methyl-3-(trifluoromethyl)-1H-pyrazol-5-yl)imidazo[1,2-c]pyrimidin-5-amine] |  |  |  |  |
| < 0.25 µM | < 0.25 µM | < 0.25 µM | Cc1cc(-c2cnc(NCc3c(F)ccc4c3CCO4)n3cc(-c4nnco4)nc23)n(C)n1 [Example 44, 8-(1,3-dimethyl-1H-pyrazol-5-yl)-N-((5-fluoro-2,3-dihydrobenzofuran-4-yl)methyl)-2-(1,3,4-oxadiazol-2-yl)imidazo[1,2-c]pyrimidin-5-amine] |  |  |  |  |
| < 0.25 µM | < 0.25 µM | < 0.25 µM | Cn1nccc1-c1cnc(NCc2c(F)ccc3c2CCO3)n2cc(CN)nc12 [Example 18, 2-(aminomethyl)-N-((5-fluoro-2,3-dihydrobenzofuran-4-yl)methyl)-8-(1-methyl-1H-pyrazol-5-yl)imidazo[1,2-c]pyrimidin-5-amine] |  |  |  |  |
| 0.5 to 2 µM | < 0.25 µM | < 0.25 µM | Cc1cc(-c2cnc(NCc3c(F)ccc4c3CCO4)n3cc(C(C)N)nc23)n(C)n1 (single isomer, unassigned) [Example 11, 2-(1-aminoethyl)-8-(1,3-dimethyl-1H-pyrazol-5-yl)-N-((5-fluoro-2,3-dihydrobenzofuran-4-yl)methyl)imidazo[1,2-c]pyrimidin-5-amine] |  |  |  |  |
| < 0.25 µM | 0.25 to 0.5 µM | < 0.25 µM | COc1ccc(-c2cnc(NCc3c(F)ccc4c3CCO4)n3cc(CN)nc23)c(C)n1 [Example 20, 2-(aminomethyl)-N-((5-fluoro-2,3-dihydrobenzofuran-4-yl)methyl)-8-(6-methoxy-2-methylpyridin-3-yl)imidazo[1,2-c]pyrimidin-5-amine] |  |  |  |  |
| < 0.25 µM | < 0.25 µM | < 0.25 µM | Cc1cc(C(=O)N(C)C)ncc1-c1cnc(NCc2c(F)ccc3c2CCO3)n2cc(C(C)N)nc12 (stereo not drawn) [Example 35, 5-(2-(1-aminoethyl)-5-(((5-fluoro-2,3-dihydrobenzofuran-4-yl)methyl)amino)imidazo[1,2-c]pyrimidin-8-yl)-N,N,4-trimethylpicolinamide] |  |  |  |  |
| < 0.25 µM | < 0.25 µM | < 0.25 µM | CC(N)c1cn2c(NCc3c(F)ccc4c3CCO4)ncc(-c3cc(C(F)(F)F)nn3C)c2n1 (stereo not drawn) [Example 36, 2-(1-aminoethyl)-N-((5-fluoro-2,3-dihydrobenzofuran-4-yl)methyl)-8-(1-methyl-3-(trifluoromethyl)-1H-pyrazol-5-yl)imidazo[1,2-c]pyrimidin-5-amine] |  |  |  |  |

| Structure (SMILES) | IC50 [1, 4] | IC50 [2, 5] | IC50 ([3]; Homo sapiens) | IC50 ([2]; Pfeiffer cells, 96 hours incubation, ELISA) | IC50 [3] | IC50 ([1]; IC50, Inhibition of PRC2-mediated Enzymatic Activity) | IC50 ([2]; Homo sapiens, Pfeiffer, 96 h) |
| --- | --- | --- | --- | --- | --- | --- | --- |
| Cc1cc(-c2cnc(NCc3c(F)ccc4c3CCO4)n3cc(CN(CCS(=O)(=O)F)CCS(=O)(=O)F)nc23)n(C)n1 [Example 28, 2,2′-(((8-(1,3-dimethyl-1H-pyrazol-5-yl)-5-(((5-fluoro-2,3-dihydrobenzofuran-4-yl)methyl)amino)imidazo[1,2-c]pyrimidin-2-yl)methyl)azanediyl)bis(ethane-1-sulfonylfluoride)] | 0.5 to 2 µM |  |  | 0.5 to 5 µM | 0.5 to 5 µM |  |  |
| Cc1cc(-c2cnc(NCc3c(F)ccc4c3CCO4)n3cc(CNCCS(=O)(=O)F)nc23)n(C)n1 [Example 27, 2-(((8-(1,3-dimethyl-1H-pyrazol-5-yl)-5-(((5-fluoro-2,3-dihydrobenzofuran-4-yl)methyl)amino)imidazo[1,2-c]pyrimidin-2-yl)methyl)amino)ethane-1-sulfonyl fluoride] |  |  | 0.5 to 5 µM |  |  | 0.5 to 2 µM | 0.5 to 5 µM |
